# Measurements: PubChem BioAssay (NCI)
#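 Briefly, cells in 96-well plates were exposed to five compound concentrations for 48 h, and endpoints were estimated by linear interpolation. GI50 is the concentration that inhibits growth by half. TGI is the concentration that stops growth completely.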
# Legend:
# Assay in all cases: DTP human tumour cell line panel, 48 h
# SNB-19 CNS = system: SNB-19 CNS
# T-47D breast = system: T-47D breast
# IGROV1 ovarian = system: IGROV1 ovarian
# BT-549 breast = system: BT-549 breast
# SF-295 CNS = system: SF-295 CNS
# SK-MEL-5 melanoma = system: SK-MEL-5 melanoma
# LOX IMVI melanoma = system: LOX IMVI melanoma
# SN12C renal = system: SN12C renal
# NCI-H23 lung = system: NCI-H23 lung
# NCI-H226 lung = system: NCI-H226 lung
# SK-MEL-2 melanoma = system: SK-MEL-2 melanoma
# DU-145 prostate = system: DU-145 prostate
# EKVX NSCLC = system: EKVX NSCLC
# SNB-75 CNS = system: SNB-75 CNS
# SF-539 CNS = system: SF-539 CNS
# ACHN renal = system: ACHN renal
# A498 renal = system: A498 renal
# UACC-62 melanoma = system: UACC-62 melanoma
# A549 NSCLC = system: A549 NSCLC
# HS 578T breast = system: HS 578T breast
# SK-OV-3 ovarian = system: SK-OV-3 ovarian
# OVCAR-8 ovarian = system: OVCAR-8 ovarian
# PC-3 prostate = system: PC-3 prostate
# HOP-62 NSCLC = system: HOP-62 NSCLC
# UO-31 renal = system: UO-31 renal
# UACC-257 melanoma = system: UACC-257 melanoma
# CAKI-1 renal = system: CAKI-1 renal
# HCT-15 colon = system: HCT-15 colon
# NCI/ADR-RES ovarian = system: NCI/ADR-RES ovarian
# MCF7 breast = system: MCF7 breast
# MALME-3M melanoma = system: MALME-3M melanoma
# SK-MEL-28 melanoma = system: SK-MEL-28 melanoma
# NCI-H522 lung = system: NCI-H522 lung
# MDA-MB-468 breast = system: MDA-MB-468 breast
# M14 melanoma = system: M14 melanoma
# SW-620 colon = system: SW-620 colon
# RXF 393 renal = system: RXF 393 renal
# COLO 205 colon = system: COLO 205 colon
# TK-10 renal = system: TK-10 renal
# 786-0 renal = system: 786-0 renal
# U251 CNS = system: U251 CNS
# MDA-MB-231 breast = system: MDA-MB-231 breast
# MDA-MB-435 = system: MDA-MB-435
# HOP-92 NSCLC = system: HOP-92 NSCLC
# HCT-116 colon = system: HCT-116 colon
# HCC-2998 colon = system: HCC-2998 colon
# OVCAR-5 ovarian = system: OVCAR-5 ovarian
# NCI-H460 lung = system: NCI-H460 lung
# MOLT-4 leukemia = system: MOLT-4 leukemia
# OVCAR-4 ovarian = system: OVCAR-4 ovarian
# OVCAR-3 ovarian = system: OVCAR-3 ovarian
# HL-60(TB) leukemia = system: HL-60(TB) leukemia
# SF-268 CNS = system: SF-268 CNS
# RPMI-8226 leukemia = system: RPMI-8226 leukemia
smiles,measurement,setting,value
O=C(CCl)Nc1ccc(C(=O)/C=C/c2cc3ccccc3nc2Cl)cc1,GI50,SNB-19 CNS,1.66 µM
same,TGI,SNB-19 CNS,3.13 µM
same,GI50,T-47D breast,1800 nM
same,TGI,T-47D breast,3.95 µM
same,GI50,IGROV1 ovarian,1.58 µM
same,TGI,IGROV1 ovarian,3.16 µM
same,GI50,BT-549 breast,1210 nM
same,TGI,BT-549 breast,2.48 µM
same,GI50,SF-295 CNS,1620 nM
same,TGI,SF-295 CNS,3.07 µM
same,GI50,SK-MEL-5 melanoma,1.55 µM
same,TGI,SK-MEL-5 melanoma,2930 nM
same,GI50,LOX IMVI melanoma,221 nM
same,TGI,LOX IMVI melanoma,626 nM
same,GI50,SN12C renal,1540 nM
same,TGI,SN12C renal,2890 nM
same,GI50,NCI-H23 lung,1.51 µM
same,TGI,NCI-H23 lung,2890 nM
same,GI50,NCI-H226 lung,1900 nM
same,TGI,NCI-H226 lung,4.82 µM
same,GI50,SK-MEL-2 melanoma,2.14 µM
same,TGI,SK-MEL-2 melanoma,5.67 µM
same,GI50,DU-145 prostate,1.76 µM
same,TGI,DU-145 prostate,3.17 µM
same,GI50,EKVX NSCLC,1.82 µM
same,TGI,EKVX NSCLC,3.52 µM
same,GI50,SNB-75 CNS,1290 nM
same,TGI,SNB-75 CNS,2.66 µM
same,GI50,SF-539 CNS,1.67 µM
same,TGI,SF-539 CNS,3.03 µM
same,GI50,ACHN renal,1720 nM
same,TGI,ACHN renal,3.09 µM
same,GI50,A498 renal,12.7 µM
same,TGI,A498 renal,25.6 µM
same,GI50,UACC-62 melanoma,1.53 µM
same,TGI,UACC-62 melanoma,2900 nM
same,GI50,A549 NSCLC,1.78 µM
same,TGI,A549 NSCLC,3.48 µM
same,GI50,HS 578T breast,1980 nM
same,TGI,HS 578T breast,5.22 µM
same,GI50,SK-OV-3 ovarian,3.63 µM
same,TGI,SK-OV-3 ovarian,12.1 µM
same,GI50,OVCAR-8 ovarian,1890 nM
same,TGI,OVCAR-8 ovarian,4.08 µM
same,GI50,PC-3 prostate,1730 nM
same,TGI,PC-3 prostate,3.47 µM
same,GI50,HOP-62 NSCLC,2.07 µM
same,TGI,HOP-62 NSCLC,3.84 µM
same,GI50,UO-31 renal,1410 nM
same,TGI,UO-31 renal,2710 nM
same,GI50,UACC-257 melanoma,1620 nM
same,TGI,UACC-257 melanoma,3.23 µM
same,GI50,CAKI-1 renal,1610 nM
same,TGI,CAKI-1 renal,2.98 µM
same,GI50,HCT-15 colon,1.24 µM
same,TGI,HCT-15 colon,2610 nM
same,GI50,NCI/ADR-RES ovarian,2160 nM
same,TGI,NCI/ADR-RES ovarian,4.81 µM
same,GI50,MCF7 breast,294 nM
same,TGI,MCF7 breast,1430 nM
same,GI50,MALME-3M melanoma,1670 nM
same,TGI,MALME-3M melanoma,3.22 µM
same,GI50,SK-MEL-28 melanoma,1880 nM
same,TGI,SK-MEL-28 melanoma,3.66 µM
same,GI50,NCI-H522 lung,1550 nM
same,TGI,NCI-H522 lung,3.02 µM
same,GI50,MDA-MB-468 breast,1470 nM
same,TGI,MDA-MB-468 breast,2920 nM
same,GI50,M14 melanoma,1570 nM
same,TGI,M14 melanoma,3.04 µM
same,GI50,SW-620 colon,523 nM
same,TGI,SW-620 colon,1830 nM
same,GI50,RXF 393 renal,1560 nM
same,TGI,RXF 393 renal,2.98 µM
same,GI50,COLO 205 colon,1750 nM
same,TGI,COLO 205 colon,3.23 µM
same,GI50,TK-10 renal,1.95 µM
same,TGI,TK-10 renal,4.58 µM
same,GI50,786-0 renal,1710 nM
same,TGI,786-0 renal,3.13 µM
same,GI50,U251 CNS,1.11 µM
same,TGI,U251 CNS,2350 nM
same,GI50,MDA-MB-231 breast,1690 nM
same,TGI,MDA-MB-231 breast,3.07 µM
same,GI50,MDA-MB-435,1120 nM
same,TGI,MDA-MB-435,2350 nM
same,GI50,HOP-92 NSCLC,1.89 µM
same,TGI,HOP-92 NSCLC,3.83 µM
same,GI50,HCT-116 colon,175 nM
same,TGI,HCT-116 colon,319 nM
same,GI50,HCC-2998 colon,1580 nM
same,TGI,HCC-2998 colon,2960 nM
same,GI50,OVCAR-5 ovarian,1800 nM
same,TGI,OVCAR-5 ovarian,3.26 µM
same,GI50,NCI-H460 lung,1720 nM
same,TGI,NCI-H460 lung,3.33 µM
COc1cc2oc(-c3cccc(C(=O)Nc4cccc([N+](=O)[O-])c4)c3)cc(=O)c2c(OC)c1OC,GI50,SNB-19 CNS,6.91 µM
same,TGI,SNB-19 CNS,68.9 µM
same,GI50,T-47D breast,3560 nM
same,TGI,T-47D breast,> 100 µM
same,GI50,IGROV1 ovarian,7.99 µM
same,TGI,IGROV1 ovarian,> 100 µM
same,GI50,BT-549 breast,2460 nM
same,TGI,BT-549 breast,8.09 µM
same,GI50,SF-295 CNS,2510 nM
same,TGI,SF-295 CNS,6.9 µM
same,GI50,SK-MEL-5 melanoma,5.17 µM
same,TGI,SK-MEL-5 melanoma,> 100000 nM
same,GI50,LOX IMVI melanoma,5730 nM
same,TGI,LOX IMVI melanoma,> 100000 nM
same,GI50,SN12C renal,3360 nM
same,TGI,SN12C renal,> 100000 nM
same,GI50,NCI-H23 lung,22.5 µM
same,TGI,NCI-H23 lung,> 100000 nM
same,GI50,NCI-H226 lung,2290 nM
same,TGI,NCI-H226 lung,7.38 µM
same,GI50,SK-MEL-2 melanoma,11.9 µM
same,TGI,SK-MEL-2 melanoma,> 100 µM
same,GI50,DU-145 prostate,4.77 µM
same,TGI,DU-145 prostate,> 100 µM
same,GI50,EKVX NSCLC,7.32 µM
same,TGI,EKVX NSCLC,> 100 µM
same,GI50,SNB-75 CNS,1990 nM
same,TGI,SNB-75 CNS,6.08 µM
same,GI50,SF-539 CNS,4.4 µM
same,TGI,SF-539 CNS,41.7 µM
same,GI50,ACHN renal,3220 nM
same,TGI,ACHN renal,> 100 µM
same,GI50,MOLT-4 leukemia,> 100 µM
same,TGI,MOLT-4 leukemia,> 100 µM
same,GI50,A498 renal,34.9 µM
same,TGI,A498 renal,> 100 µM
same,GI50,UACC-62 melanoma,4.92 µM
same,TGI,UACC-62 melanoma,> 100000 nM
same,GI50,A549 NSCLC,4.94 µM
same,TGI,A549 NSCLC,> 100 µM
same,GI50,HS 578T breast,2510 nM
same,TGI,HS 578T breast,7.23 µM
same,GI50,SK-OV-3 ovarian,4.26 µM
same,TGI,SK-OV-3 ovarian,> 100 µM
same,GI50,OVCAR-4 ovarian,2720 nM
same,TGI,OVCAR-4 ovarian,9.09 µM
same,GI50,PC-3 prostate,3550 nM
same,TGI,PC-3 prostate,> 100 µM
same,GI50,OVCAR-3 ovarian,4.44 µM
same,TGI,OVCAR-3 ovarian,> 100 µM
same,GI50,HOP-62 NSCLC,6.31 µM
same,TGI,HOP-62 NSCLC,33.6 µM
same,GI50,CAKI-1 renal,2860 nM
same,TGI,CAKI-1 renal,10.9 µM
same,GI50,HCT-15 colon,5.25 µM
same,TGI,HCT-15 colon,> 100000 nM
same,GI50,MCF7 breast,3800 nM
same,TGI,MCF7 breast,> 100000 nM
same,GI50,NCI-H522 lung,3140 nM
same,TGI,NCI-H522 lung,23.2 µM
same,GI50,M14 melanoma,> 100000 nM
same,TGI,M14 melanoma,> 100 µM
same,GI50,RXF 393 renal,2280 nM
same,TGI,RXF 393 renal,18.8 µM
same,GI50,COLO 205 colon,> 100000 nM
same,TGI,COLO 205 colon,> 100 µM
same,GI50,TK-10 renal,11.5 µM
same,TGI,TK-10 renal,60.8 µM
same,GI50,HL-60(TB) leukemia,> 100 µM
same,TGI,HL-60(TB) leukemia,> 100 µM
same,GI50,786-0 renal,3680 nM
same,TGI,786-0 renal,21.7 µM
same,GI50,U251 CNS,6.69 µM
same,TGI,U251 CNS,> 100000 nM
same,GI50,MDA-MB-231 breast,4260 nM
same,TGI,MDA-MB-231 breast,> 100 µM
same,GI50,HOP-92 NSCLC,5.46 µM
same,TGI,HOP-92 NSCLC,42.4 µM
same,GI50,HCT-116 colon,3570 nM
same,TGI,HCT-116 colon,> 100000 nM
same,GI50,SF-268 CNS,3.49 µM
same,TGI,SF-268 CNS,> 100 µM
same,GI50,OVCAR-5 ovarian,> 100000 nM
same,TGI,OVCAR-5 ovarian,> 100 µM
same,GI50,RPMI-8226 leukemia,2880 nM
same,TGI,RPMI-8226 leukemia,> 100 µM
same,GI50,NCI-H460 lung,3870 nM
same,TGI,NCI-H460 lung,> 100 µM
